In PubChem BioAssay AID1645863 (Buhrlage Lab, Dana-Farber Cancer Institute and Novartis …, 2021):
The source made the active and inactive calls. How the calls were made is not given here.

Biological target: Ubiquitin carboxyl-terminal hydrolase 10 (Homo sapiens) (UniProt Q14694)
Assay: ubiquitin-specific protease 10 DUB inhibitors, concentration-effect, biochemical, verification of primary screen actives (AID 1645863);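 further: potency values describe inhibition of USP10 cleavage of a fluorogenic ubiquitin substrate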
Conditions: USP10 deubiquitinase enzymatic assay

Sequence of Ubiquitin carboxyl-terminal hydrolase 10 (Homo sapiens) (Q14694 whole entry, looked up): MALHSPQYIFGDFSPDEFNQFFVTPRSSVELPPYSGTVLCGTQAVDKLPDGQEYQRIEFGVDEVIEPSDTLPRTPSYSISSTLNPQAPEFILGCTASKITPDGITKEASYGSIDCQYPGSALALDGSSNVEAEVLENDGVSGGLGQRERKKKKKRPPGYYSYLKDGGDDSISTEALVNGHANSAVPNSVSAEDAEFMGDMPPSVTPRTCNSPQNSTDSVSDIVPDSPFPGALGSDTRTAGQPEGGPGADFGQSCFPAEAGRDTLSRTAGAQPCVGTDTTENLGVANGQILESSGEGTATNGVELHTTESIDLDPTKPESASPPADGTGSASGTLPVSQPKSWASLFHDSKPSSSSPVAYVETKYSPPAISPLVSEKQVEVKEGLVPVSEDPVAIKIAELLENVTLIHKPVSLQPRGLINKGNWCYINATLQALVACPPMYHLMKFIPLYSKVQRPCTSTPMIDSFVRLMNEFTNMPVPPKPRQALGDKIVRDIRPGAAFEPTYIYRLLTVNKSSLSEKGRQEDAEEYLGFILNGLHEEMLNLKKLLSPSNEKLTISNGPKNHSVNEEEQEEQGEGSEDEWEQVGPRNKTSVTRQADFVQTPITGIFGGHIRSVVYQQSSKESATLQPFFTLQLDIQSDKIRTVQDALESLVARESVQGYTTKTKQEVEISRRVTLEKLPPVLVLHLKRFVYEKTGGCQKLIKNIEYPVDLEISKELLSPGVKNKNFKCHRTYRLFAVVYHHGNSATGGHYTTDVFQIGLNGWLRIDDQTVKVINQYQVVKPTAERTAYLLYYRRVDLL

IC50 | SMILES
> 40 µM (inactive) | Cc1ccc2c(c1)c(=O)c(C(=O)c1ccccc1)cn2CC(=O)Nc1ccc2c(c1)OCO2
39 µM | O=c1[nH]c2ccc(S(=O)(=O)Nc3ccc(O)c4ccccc34)cc2[nH]1
> 40 µM (inactive) | Cc1ccc2c(c1)c(=O)c(C(=O)c1ccccc1)cn2CC(=O)Nc1ccc2c(c1)OCCO2
> 40 µM (inactive) | O=C(Cn1c(=O)[nH]c2ccccc2c1=O)NCc1ccccc1Cl
17.5 µM | COc1ccc(Cl)cc1NC(=O)COC(=O)c1cc2ccccc2oc1=O
> 40 µM (inactive) | O=C(CSc1ccc2nnc(-c3ccc(Cl)cc3)n2n1)N1CCCCC1
> 40 µM (inactive) | CCN(c1ccc(NC(=O)COC(=O)c2cccnc2Nc2cccc(C(F)(F)F)c2)cc1)C(C)C
31.1 µM | COc1ccc(Cl)cc1NC(=O)Cn1c(=O)n(CCCC(=O)NCc2ccc(C)cc2)c(=O)c2sccc21
24.9 µM | CN1C(=O)COc2cc(-c3noc(C(=O)NCc4ccc(F)cc4)n3)ccc21
26 µM | Cc1ccc(NC(=O)CSc2nnc(-c3n[nH]c4c3CCC4)n2N)cc1C
26.5 µM | Cn1c(=O)c(C(=O)Nc2ccc(Br)cc2)nc2ccccc21
18.7 µM | COc1ccc(Nc2nnc(Cc3ccc(Cl)cc3)c(=O)[nH]2)cc1
12.4 µM | CC[C@@H](C(=O)[C@@H](C)[C@@H](O)[C@H](C)CCc1ccc(C)c(O)c1C(=O)O)[C@@H]1O[C@](CC)([C@H]2CC[C@](O)(CC)[C@H](C)O2)C[C@@H]1C
> 40 µM (inactive) | O=C(NCc1ccccc1)Nc1cccc2ccccc12
> 40 µM (inactive) | O=C(COc1cccc(-c2noc(-c3ccc([N+](=O)[O-])cc3)n2)c1)Nc1ccccc1
> 40 µM (inactive) | COC(=O)c1ccc(NC(=O)c2ccc(COc3cc(Cl)ccc3Cl)cc2)cc1
> 40 µM (inactive) | Cc1ccc2cc(CNc3ccccc3)c(=O)n(CC(=O)Nc3ccccc3C)c2c1
> 40 µM (inactive) | Cc1nc2c(nnn2C[C@H]2CCCN2C(=O)c2ccc(F)cc2)c(=O)[nH]1
15.8 µM | Cc1nc(-c2noc(-c3cccc(F)c3)n2)cn1CC(=O)Nc1ccccc1
> 40 µM (inactive) | COc1ccc(NC2c3ccccc3C(=O)N2c2ccccn2)cc1 (stereo unspecified)
> 40 µM (inactive) | COc1ccc(C(=O)Nc2nc(-c3ccc4c(c3)NC(=O)CO4)c(C)s2)cc1OC
> 40 µM (inactive) | O=C(CC1C(=O)N(C2CCCC2)c2nc3ccccc3n21)Nc1ccccc1 (stereo unspecified)
13.2 µM | CC(NC(=O)c1ccccc1)c1nc2ccccc2n1CC(=O)Nc1ccc(C#N)cc1 (stereo unspecified)

IC50 | SMILES
14.6 µM | COc1cccc(NC(=O)Cn2c3ccccc3n3c(=O)cc(-c4ccccc4)nc23)c1
3.21 µM | Cn1c(=O)c2nc(-c3ccc(Cl)cc3)nnc2n(C)c1=O
> 40 µM (inactive) | COc1cccc(C2c3[nH]c4ccccc4c3C[C@@H]3C(=O)N(CC(O)c4ccccc4)CC(=O)N23)c1 (stereo partly specified)
16.4 µM | Cc1ccc(C(=O)c2cn(CC(=O)Nc3ccc4c(c3)OCO4)c3ccccc3c2=O)cc1
> 40 µM (inactive) | O=C(Nc1ccc(Br)cc1F)c1ccc(S(=O)(=O)N2CCCC2)cc1
> 40 µM (inactive) | Cn1cc(NC(=O)Nc2cccc3ccccc23)c2ccccc21
> 40 µM (inactive) | CCCn1c(=O)c(-c2ccc(C(=O)NCc3ccc(OC)cc3)cc2)nc2cccnc21
13.7 µM | COc1cc2c(cc1OC)-c1cc(Nc3ccc(Br)cc3)nc(=O)n1CC2
> 40 µM (inactive) | Cc1cccc(OCC2=NN3C(=N)/C(=C\c4cc(C)n(-c5cc(C)cc(C)c5)c4C)C(=O)N=C3S2)c1
> 40 µM (inactive) | O=C(Cn1c(=O)n(CC2CCC(C(=O)NC3CCCC3)CC2)c(=O)c2ccccc21)NCCC1=CCCCC1 (stereo unspecified)
> 40 µM (inactive) | COc1ccc(OC)c(NC2=NS(=O)(=O)C(c3cccc(Br)c3)=C2C)c1
36.1 µM | COc1cc2c(=O)n(CCC(=O)NC3CCCC3)c(=O)n(CC(=O)Nc3cccc(Cl)c3)c2cc1OC
14.6 µM | Cc1cc(NC(=O)Cn2c(=O)n(CCCCC(=O)NCc3ccco3)c(=O)c3ccccc32)ccc1Br
> 40 µM (inactive) | Cc1cccc(OCC2=NN3C(=N)/C(=C\c4cc(C)n(-c5cccc(F)c5)c4C)C(=O)N=C3S2)c1
24.9 µM | Nc1ncnc2c1ncn2[C@@H]1O[C@H](CO)C[C@@H]1O
18.5 µM | C[C@@H]1CO[C@@H]2C3=C(C(=O)C=CC3=O)[C@H]3OC(=O)[C@@H]4CCC5[C@@H]1CCC52C34 (stereo partly specified)
11.3 µM | Oc1cccc2nc3c(O)cccc3nc12
> 40 µM (inactive) | Cc1ccc(S(=O)(=O)NCc2ccc(C(=O)NCCc3ccc(S(N)(=O)=O)cc3)cc2)cc1
10.6 µM | O=C(CCCCCn1c(=O)c2sccc2n(CC(=O)c2ccc(Cl)c(Cl)c2)c1=O)NCc1ccc2c(c1)OCO2
> 40 µM (inactive) | Cc1ccc(NC(=O)Cc2sc(Nc3ccc(C)cc3)nc2O)cc1
> 40 µM (inactive) | CCOc1ccc(-c2noc(-c3nn(-c4cccc(OC)c4)ccc3=O)n2)cc1
21.6 µM | COc1ccc(-c2cc(-c3ccccc3)nc(SCC(N)=O)c2C#N)cc1OC
> 40 µM (inactive) | Cc1ccc(CNCc2cc3c(-c4ccc(F)cc4)nn(-c4ccccc4)c3[nH]c2=O)cc1

IC50 | SMILES
17.4 µM | Cc1cccc(NC(=O)Nc2nnc(CC(=O)NCc3ccccc3)s2)c1
> 40 µM (inactive) | COCCCNC(=O)c1ccc(Cn2c(=O)c3ccccc3n(CC(=O)Nc3ccc(OC)cc3)c2=O)cc1
> 40 µM (inactive) | Cc1c(-c2nn3c(-c4ccco4)nnc3s2)cccc1[N+](=O)[O-]
> 40 µM (inactive) | COc1cccc(NC(=O)c2cn(-c3cc(N4CCCC4)ncn3)cn2)c1
> 40 µM (inactive) | CCOc1ccc2[nH]c(=O)c(-c3nc4ccc(C)cn4c3NCc3ccccc3)cc2c1
23.9 µM | Cc1ccc(NC(=O)Cn2cc(C(=O)c3ccccc3)c(=O)c3cc(C)ccc32)cc1
> 40 µM (inactive) | O=C(/C=C/c1ccco1)N1CCC(Cn2cccn2)CC1
> 40 µM (inactive) | COc1ccccc1CNC(=O)C1c2ccccc2C(=O)N1Cc1ccccc1C (stereo unspecified)
17.3 µM | COC(=O)c1c(OC)cc2c(c1C)Oc1c(Cl)c(O)c(Cl)c(C)c1C(=O)O2
19.3 µM | CSC1SCC2C(=O)N(C)C(C(C)C(C)C)C(=O)OCC(NC(=O)c3cnc4ccccc4n3)C(=O)NC(C)C(=O)N(C)C1C(=O)N(C)C(C(C)C(C)C)C(=O)OCC(NC(=O)c1cnc3ccccc3n1)C(=O)NC(C)C(=O)N2C (stereo unspecified)
22.9 µM | COc1ccc(NC(=O)CC(=O)c2ccc([N+](=O)[O-])cc2)cc1S(=O)(=O)Nc1ccc(Br)cc1
> 40 µM (inactive) | Cc1cccc(NC(=O)Cn2c(=O)n(-c3cc(C)cc(C)c3)c(=O)c3sccc32)c1
> 40 µM (inactive) | Cc1cc(Nc2cccc(Cl)c2)n2nc(-c3cccnc3)nc2n1
> 40 µM (inactive) | CCN(Cc1ccccc1)C(=O)C1CCN(Cc2ccc(OC)c(OC)c2OC)CC1
16.1 µM | Cc1cccc(-n2ccnc(SCC(=O)Nc3ccc(Cl)cc3F)c2=O)c1
9.91 µM | O=C(O)c1cccc(NC(=O)C(Sc2cccc(NC(=O)c3cccc(Cl)c3)c2)c2ccccc2)c1 (stereo unspecified)
> 40 µM (inactive) | CCCn1cc(C(=O)N2CCC3(CC2)CC2(CO3)Nc3ccccc3-n3cccc32)c(C)n1 (stereo unspecified)
> 40 µM (inactive) | O=C(c1ccc(Cl)cc1)N(c1ccccn1)C1CCCCC1
> 40 µM (inactive) | CCOc1cccc(-c2noc(-c3nn(-c4ccccc4)ccc3=O)n2)c1
12.8 µM | Cc1ccc2c(c1)N(C)C(=O)c1cc(NC(=O)c3ccc(F)cc3)ccc1O2
10.9 µM | O=C(Cn1nc2c3c4c(sc3ncn2c1=O)CCCCC4)Nc1ccc(Cl)cc1F
8.37 µM | O=C(NCCc1ccccc1)c1ccc2c(=O)n(Cc3ccco3)c(=O)n(Cc3cccc([N+](=O)[O-])c3)c2c1
20.8 µM | COc1ccccc1CNC(=O)CCCCn1c(=O)c2ccccc2n(Cc2ccc(C)cc2)c1=O

IC50 | SMILES
12 µM | CC1=CC(=O)C(C2=C(O)C(=O)C(C)=CC2=O)=C(O)C1=O
12.8 µM | O=C(NCC1(c2ccccc2)CCC1)c1nc2n(n1)-c1ccccc1S(=O)(=O)N2
> 40 µM (inactive) | O=C1CC(C(=O)Nc2ccc3c(c2)OCO3)n2nc(SCc3ccccc3)nc2N1 (stereo unspecified)
> 40 µM (inactive) | CCCCN1CC(C(=O)Nc2ccc(C(=O)Nc3ccc(C(N)=O)cc3)cc2)CC1=O (stereo unspecified)
> 40 µM (inactive) | Cc1ccc2c(CNCCC3=CCCCC3)c(C(=O)O)n(C)c2c1
> 40 µM (inactive) | NS(=O)(=O)c1ccc(CNS(=O)(=O)/C=C/c2ccccc2)cc1
11.2 µM | COc1cccc(NC(=O)Cn2cc(C(=O)c3ccc(C)cc3)c(=O)c3cc(Cl)ccc32)c1
9.23 µM | O=C(Nc1ccccc1-c1nc2ccccc2[nH]1)c1sc2ccccc2c1Cl
> 40 µM (inactive) | Cc1cccc(C(=O)Nc2cccc(SC(C(=O)Nc3ccc(O)c(C(=O)O)c3)c3ccccc3)c2)c1 (stereo unspecified)
> 40 µM (inactive) | Cc1ccc(-n2nc(C)c3c2NC(=O)CC3C(=O)c2cc3ccccc3o2)cc1C (stereo unspecified)
> 40 µM (inactive) | COc1ccc(Oc2cc3n(c(=O)n2)CCc2cc(OC)c(OC)cc2-3)cc1
37 µM | COc1ccc(NC(=O)Cn2c(C)cc(=O)n3nc(-c4cccc(C)c4)nc23)cc1
> 40 µM (inactive) | COCC(=O)N1CCC(n2c(C3CC3)nc3sc(C)c(C)c3c2=O)CC1
> 40 µM (inactive) | Cc1cc(NC(=O)CSc2ncc(-c3cccc([N+](=O)[O-])c3)n2-c2cccc(Cl)c2)no1
> 40 µM (inactive) | O=C(Cn1c(=O)c2sccc2n(Cc2ccc([N+](=O)[O-])cc2)c1=O)NCCc1ccccc1
> 40 µM (inactive) | COc1ccc(C2(c3nnc(C(C)Oc4ccc(F)cc4)o3)CCOCC2)cc1 (stereo unspecified)
> 40 µM (inactive) | Cc1ccc(NC(=O)Nc2nnc(CC(=O)NCc3ccccc3)s2)cc1F
31.5 µM | Cc1ccc(NC(=O)Cc2nnc3c(-c4nc(C5CC5)no4)cccn23)cc1F
> 40 µM (inactive) | Cc1cc(C)c(NC(=O)Cn2c(SCc3cccc(F)c3)nc3cccnc32)c(C)c1
> 40 µM (inactive) | CC(C)(C)C(=O)C1C2C(=O)N(c3ccc4c(c3)OCO4)C(=O)C2C2c3ccccc3C=CN12 (stereo unspecified)
21.9 µM | Cc1ccc(NC(=O)Nc2ccc(C)n(CC(=O)Nc3ccc(C)cc3C)c2=O)cc1

SMILES | IC50
COc1cccc2c1NC(=O)C21CCN(C(=O)Nc2cccc3ccccc23)CC1 | > 40 µM (inactive)
